Measured values from PubChem BioAssay (NCI).
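Each compound was tested at five concentrations against cells in 96-well plates for 48 hours. Here, GI50 denotes the concentration required for 50% inhibition of growth. TGI denotes the concentration required for complete inhibition of growth.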

Legend:
Experiment in all cases: NCI anticancer screen, dose series, 48 h
SN12C renal = tested on: SN12C renal
UACC-62 melanoma = tested on: UACC-62 melanoma
IGROV1 ovarian = tested on: IGROV1 ovarian
SF-295 CNS = tested on: SF-295 CNS
K-562 leukemia = tested on: K-562 leukemia
MDA-MB-231 breast = tested on: MDA-MB-231 breast
HCT-15 colon = tested on: HCT-15 colon
786-0 renal = tested on: 786-0 renal
M14 melanoma = tested on: M14 melanoma
HS 578T breast = tested on: HS 578T breast
NCI-H460 lung = tested on: NCI-H460 lung
SK-MEL-5 melanoma = tested on: SK-MEL-5 melanoma
SW-620 colon = tested on: SW-620 colon
SK-MEL-28 melanoma = tested on: SK-MEL-28 melanoma
MCF7 breast = tested on: MCF7 breast
A498 renal = tested on: A498 renal
MOLT-4 leukemia = tested on: MOLT-4 leukemia
HT29 colon = tested on: HT29 colon
NCI/ADR-RES ovarian = tested on: NCI/ADR-RES ovarian
SR leukemia = tested on: SR leukemia
HCC-2998 colon = tested on: HCC-2998 colon
CCRF-CEM leukemia = tested on: CCRF-CEM leukemia
UO-31 renal = tested on: UO-31 renal
NCI-H23 lung = tested on: NCI-H23 lung
HCT-116 colon = tested on: HCT-116 colon
EKVX NSCLC = tested on: EKVX NSCLC
U251 CNS = tested on: U251 CNS
COLO 205 colon = tested on: COLO 205 colon
BT-549 breast = tested on: BT-549 breast
SK-OV-3 ovarian = tested on: SK-OV-3 ovarian
OVCAR-5 ovarian = tested on: OVCAR-5 ovarian
KM12 colon = tested on: KM12 colon
PC-3 prostate = tested on: PC-3 prostate
RPMI-8226 leukemia = tested on: RPMI-8226 leukemia
UACC-257 melanoma = tested on: UACC-257 melanoma
ACHN renal = tested on: ACHN renal
SNB-75 CNS = tested on: SNB-75 CNS
DU-145 prostate = tested on: DU-145 prostate
OVCAR-4 ovarian = tested on: OVCAR-4 ovarian
TK-10 renal = tested on: TK-10 renal
OVCAR-8 ovarian = tested on: OVCAR-8 ovarian
SNB-19 CNS = tested on: SNB-19 CNS
HOP-62 NSCLC = tested on: HOP-62 NSCLC
NCI-H522 lung = tested on: NCI-H522 lung
LOX IMVI melanoma = tested on: LOX IMVI melanoma
SF-268 CNS = tested on: SF-268 CNS
NCI-H226 lung = tested on: NCI-H226 lung

COC(=O)[C@@H](C)C[C@H](Cc1ccc2ccccc2c1)NC(=O)c1csc([C@@H](C[C@H](C(C)C)N(C)C(=O)[C@@H](NC(=O)[C@H]2CCCCN2C)C(C)C)OC(C)=O)n1
GI50 (SN12C renal): 47 nM
TGI (SN12C renal): > 25000 nM
GI50 (UACC-62 melanoma): 9.95 nM
TGI (UACC-62 melanoma): 7780 nM
GI50 (IGROV1 ovarian): 18.3 nM
TGI (IGROV1 ovarian): > 25000 nM
GI50 (SF-295 CNS): 10.7 nM
TGI (SF-295 CNS): > 25000 nM
GI50 (K-562 leukemia): 7.06 nM
TGI (K-562 leukemia): 8760 nM
GI50 (MDA-MB-231 breast): 20.6 nM
TGI (MDA-MB-231 breast): 7170 nM
GI50 (HCT-15 colon): 52.2 nM
TGI (HCT-15 colon): > 25000 nM
GI50 (786-0 renal): 9.94 nM
TGI (786-0 renal): 5080 nM
GI50 (M14 melanoma): 12.9 nM
TGI (M14 melanoma): 4290 nM
GI50 (HS 578T breast): 12.2 nM
TGI (HS 578T breast): > 25000 nM
GI50 (NCI-H460 lung): 11.8 nM
TGI (NCI-H460 lung): > 25000 nM
GI50 (SK-MEL-5 melanoma): 12.2 nM
TGI (SK-MEL-5 melanoma): 1420 nM
GI50 (SW-620 colon): 14.7 nM
TGI (SW-620 colon): > 25000 nM
GI50 (SK-MEL-28 melanoma): 2700 nM
TGI (SK-MEL-28 melanoma): 6600 nM
GI50 (MCF7 breast): 6.99 nM
TGI (MCF7 breast): 9210 nM
GI50 (A498 renal): 74.5 nM
TGI (A498 renal): > 25000 nM
GI50 (MOLT-4 leukemia): 11.5 nM
TGI (MOLT-4 leukemia): 7540 nM
GI50 (HT29 colon): 8.29 nM
TGI (HT29 colon): 4520 nM
GI50 (NCI/ADR-RES ovarian): 614 nM
TGI (NCI/ADR-RES ovarian): > 25000 nM
GI50 (SR leukemia): 2.5 nM
TGI (SR leukemia): 3570 nM
GI50 (HCC-2998 colon): 52.9 nM
TGI (HCC-2998 colon): 21600 nM
GI50 (CCRF-CEM leukemia): 10.3 nM
TGI (CCRF-CEM leukemia): > 25000 nM
GI50 (UO-31 renal): 286 nM
TGI (UO-31 renal): 5180 nM
GI50 (NCI-H23 lung): 28.1 nM
TGI (NCI-H23 lung): > 25000 nM
GI50 (HCT-116 colon): 8.65 nM
TGI (HCT-116 colon): 13000 nM
GI50 (EKVX NSCLC): 41.8 nM
TGI (EKVX NSCLC): > 25000 nM
GI50 (U251 CNS): 12.8 nM
TGI (U251 CNS): 10700 nM
GI50 (COLO 205 colon): 16 nM
TGI (COLO 205 colon): 282 nM
GI50 (BT-549 breast): 13 nM
TGI (BT-549 breast): 374 nM
GI50 (SK-OV-3 ovarian): 48 nM
TGI (SK-OV-3 ovarian): > 25000 nM
GI50 (OVCAR-5 ovarian): 62.9 nM
TGI (OVCAR-5 ovarian): > 25000 nM
GI50 (KM12 colon): 11 nM
TGI (KM12 colon): > 25000 nM
GI50 (PC-3 prostate): 10.6 nM
TGI (PC-3 prostate): 7770 nM
GI50 (RPMI-8226 leukemia): 9.32 nM
TGI (RPMI-8226 leukemia): 5990 nM
GI50 (UACC-257 melanoma): 4130 nM
TGI (UACC-257 melanoma): 9420 nM
GI50 (ACHN renal): 164 nM
TGI (ACHN renal): 4590 nM
GI50 (SNB-75 CNS): 5.24 nM
TGI (SNB-75 CNS): > 25000 nM
GI50 (DU-145 prostate): 9.84 nM
TGI (DU-145 prostate): > 25000 nM
GI50 (OVCAR-4 ovarian): 129 nM
TGI (OVCAR-4 ovarian): > 25000 nM
GI50 (TK-10 renal): 8800 nM
TGI (TK-10 renal): > 25000 nM
GI50 (OVCAR-8 ovarian): 44.5 nM
TGI (OVCAR-8 ovarian): > 25000 nM
GI50 (SNB-19 CNS): 15.3 nM
TGI (SNB-19 CNS): > 25000 nM
GI50 (HOP-62 NSCLC): 22.1 nM
TGI (HOP-62 NSCLC): > 25000 nM
GI50 (NCI-H522 lung): 5.61 nM
TGI (NCI-H522 lung): 6030 nM
GI50 (LOX IMVI melanoma): 13 nM
TGI (LOX IMVI melanoma): 4780 nM
GI50 (SF-268 CNS): 21 nM
TGI (SF-268 CNS): > 25000 nM
GI50 (NCI-H226 lung): 7110 nM
TGI (NCI-H226 lung): > 25000 nM
